Molecules are shown by their SMILES.

Here are results for two molecules from BindingDB's records for patent US20230286970 (Italfarmaco, 2023).

This assay deals with T1, Histone deacetylase 6 (Homo sapiens, UniProt Q9UBN7).
T1 sequence (Q9UBN7 whole entry): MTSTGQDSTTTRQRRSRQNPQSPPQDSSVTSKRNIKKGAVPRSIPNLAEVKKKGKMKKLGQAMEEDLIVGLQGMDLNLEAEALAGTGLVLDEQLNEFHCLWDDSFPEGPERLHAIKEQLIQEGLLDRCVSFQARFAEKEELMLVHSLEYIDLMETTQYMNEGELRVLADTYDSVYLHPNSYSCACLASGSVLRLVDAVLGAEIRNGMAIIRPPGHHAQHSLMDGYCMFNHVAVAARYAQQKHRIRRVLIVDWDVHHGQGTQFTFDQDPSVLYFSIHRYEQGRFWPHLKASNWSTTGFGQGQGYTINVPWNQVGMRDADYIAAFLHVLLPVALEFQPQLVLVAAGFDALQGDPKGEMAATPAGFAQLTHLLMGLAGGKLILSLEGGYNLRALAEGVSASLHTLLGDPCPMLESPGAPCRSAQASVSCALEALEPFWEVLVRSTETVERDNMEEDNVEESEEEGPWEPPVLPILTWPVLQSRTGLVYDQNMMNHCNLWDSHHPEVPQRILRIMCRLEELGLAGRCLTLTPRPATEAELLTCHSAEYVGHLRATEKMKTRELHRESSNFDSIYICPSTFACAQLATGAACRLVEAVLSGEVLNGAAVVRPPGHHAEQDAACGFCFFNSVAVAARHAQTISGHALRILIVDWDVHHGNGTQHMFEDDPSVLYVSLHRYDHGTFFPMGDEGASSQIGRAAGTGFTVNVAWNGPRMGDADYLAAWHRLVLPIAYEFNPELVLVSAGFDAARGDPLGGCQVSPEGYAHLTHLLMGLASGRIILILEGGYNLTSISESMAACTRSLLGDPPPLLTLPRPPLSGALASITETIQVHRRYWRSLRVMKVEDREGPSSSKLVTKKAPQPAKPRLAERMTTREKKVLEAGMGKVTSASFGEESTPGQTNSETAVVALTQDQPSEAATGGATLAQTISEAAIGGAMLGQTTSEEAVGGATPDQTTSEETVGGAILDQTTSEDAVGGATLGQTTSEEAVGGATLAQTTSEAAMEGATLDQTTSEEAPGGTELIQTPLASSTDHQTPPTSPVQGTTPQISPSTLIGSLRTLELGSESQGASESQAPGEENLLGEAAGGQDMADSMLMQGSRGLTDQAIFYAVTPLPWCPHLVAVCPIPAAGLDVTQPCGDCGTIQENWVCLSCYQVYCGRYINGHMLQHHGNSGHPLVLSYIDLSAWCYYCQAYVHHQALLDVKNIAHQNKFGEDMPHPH
The experiment in a line: Enzymatic Activity Assay. The protocol: After a period of preincubation (incubation times and temperatures vary for different isoforms and are shown in table 1) 25 μL of solution containing the substrate were added. […] Enzymatic activity on recombinant human HDAC6 and HDAC1 was evaluated (Table 2) for each synthesized compound.

The IC50 is the concentration at which inhibition is half-maximal. A lower IC50 goes with higher potency. In turn, `Nc1nc2ccc(-c3cn(Cc4ccc(-c5nnc(C(F)F)o5)cc4)nn3)cc2s1` [US20230286970, Compound 14] yielded an IC50 of 25 nM.

The molecule `Nc1ccc(-c2cn(Cc3ccc(-c4nnc(C(F)F)o4)c(F)c3)nn2)cn1` [US20230286970, Compound 15] registered an IC50 of 26 nM.
